# Test results taken from patent publication US9387198B1 (priority 2015, dated 2016).
# Columns and labels:
# [1] = molecular target: T1, human serum albumin (HSA) (Homo sapiens, UniProt P02768); assay: Fluorescence-based anti-glycation assay (fructose-mediated glycation of HSA); assay type: biochemical; settings: compared to reference compound rutin
# T1 construct: purchased Sigma Aldrich, St. Louis, Mo., USA
# Description: Prior to incubation, rutin (reference compound) and 6-nitrobenzimidazole derivatives were added to a reaction mixture to a final concentration of 1 mM. DMSO was used as a solvent (final concentration: 10%) in this assay.
# Percentage Inhibition=(1−Fluorescence of test compounds/Fluorescence of glycated-HSA)×100 Where, Test compounds=6-Nitrobenzimidazole derivatives
# [2] = Cytotoxicity evaluation by MTT-assay; settings: mouse, mouse fibroblast (3T3) cells
# Description: (§1) Cytotoxicity evaluation was also carried out against mouse fibroblast (3T3) cell-line by employing MTT-assay.
# [3] = tested on: rat hepatocytes (CC1-Cell line); assay: Fructose-derived AGE-induced intracellular ROS production (DCFH-DA technique); assay type: cell-based; settings: for effect on ROS production (in words): AGE 200 μg/mL; for Fluorescence (Average), AGE-mediated intracellular ROS production: co-incubated with AGEs 200 μg/mL, 24 hours
# Description: Procedure of the Assay: Briefly, 6×10^4 cells/mL cells (normal rat hepatocytes: CC1-Cell line) were seeded on a 96-well plate and kept for 24 hours in an incubator, containing 5% CO2 at 37° C. […] Initially the cells were incubated with 10 μM DCFH-DA non fluorescent probe, for 45 mins in the dark environment. […] The control was treated with 0.5% H2O2 just before 1 hour prior to halt the incubation period.
# Detection of Fluorescence Intensity: The intensity of fluorescence was measured at an excitation 490 nm and an emission 520 nm, using Spectra Max Spectrophotometer (Applied Biosystems, CA, USA).
# Where, Blank=Normal rat hepatocytes Control=Rat hepatocytes treated with 0.5% […] Test compound=6-Nitrobenzimidazole derivative
# [4] = tested on: rat hepatocytes (CC1-Cell line); assay: Fructose-derived AGE-mediated diminished growth of hepatocytes (MTT assay); assay type: cell-based; settings: for effect on hepatocytes growth and proliferation (in words) / Percentage Inhibition (remaining growth inhibition of hepatocytes versus normal cells): AGEs 200 μg/mL; for Percentage Inhibition (remaining growth inhibition of hepatocytes versus normal cells): lower = more growth restored; for Absorbance (Average), AGE-mediated diminished growth of the hepatocytes: co-incubated with AGEs 200 μg/mL, 540 nm
# Description: The mixture was incubated at 37° C. for 12 weeks under dark sterile environment. […] The cells treated with Triton X-100 were used as a blank, while normal cells remain untreated were used as a control.
# MTT Assay: Following 24 hours of incubation, the plate was decanted to remove the medium and the cells were washed with 1×PBS. The MTT-dye (50 μL: 2 mg/mL) was then loaded to each well. 200 μL (final reaction volume) was reconstituted by serum free-MEM (Minimum essential media) in a dark environment. The plate was incubated in 5% CO2 containing incubator at 37° C. for the next 4 hours. At the end of the incubation, the medium was removed and the crystals were dissolved by adding 100 μL DMSO into each well.
# Measurement of Absorbance: The intensity of purple colored solution was measured at the wavelength of 540 nm, using Spectra Max Spectrophotometer (Applied Biosystems, CA, USA).
# Where, Blank=Triton X-100 treated rat hepatocytes Control=Normal rat hepatocytes Test Compound=6-nitrobenzimidazole derivatives
# [5] = in vitro; settings: mouse
# Description: as §1
# [6] = Rattus norvegicus, Hepatocyte, 24 h, read-out: Percentage Inhibition of AGE-mediated intracellular ROS production
# T1 sequence (P02768 25-609): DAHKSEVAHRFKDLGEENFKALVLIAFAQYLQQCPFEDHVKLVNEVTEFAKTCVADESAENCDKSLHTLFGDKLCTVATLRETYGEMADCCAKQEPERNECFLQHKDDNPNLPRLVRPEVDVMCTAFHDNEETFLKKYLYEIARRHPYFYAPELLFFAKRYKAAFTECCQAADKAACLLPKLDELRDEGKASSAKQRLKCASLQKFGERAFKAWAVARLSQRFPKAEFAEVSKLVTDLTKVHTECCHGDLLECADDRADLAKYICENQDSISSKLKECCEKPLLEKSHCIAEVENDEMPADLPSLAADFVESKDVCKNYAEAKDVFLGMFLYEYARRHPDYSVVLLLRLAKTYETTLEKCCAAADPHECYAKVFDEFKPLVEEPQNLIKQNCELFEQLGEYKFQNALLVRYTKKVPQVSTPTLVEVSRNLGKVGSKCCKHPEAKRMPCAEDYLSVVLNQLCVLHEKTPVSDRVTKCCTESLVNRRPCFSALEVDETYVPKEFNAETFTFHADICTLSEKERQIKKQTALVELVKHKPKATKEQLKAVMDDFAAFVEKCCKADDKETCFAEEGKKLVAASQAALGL
smiles,measurement,setting,value
"O=[N+]([O-])c1ccc2nc(-c3cccc(O)c3O)[nH]c2c1 [Compound 1, 3-(6-Nitro-1H-benzimidazol-2-yl)-1,2-benzenediol]",anti-glycation activity (in words),[1],significant anti-glycation activity
same,cytotoxicity,[2],35.9%
"O=[N+]([O-])c1ccc2nc(-c3cc(O)ccc3O)[nH]c2c1 [Compound 2, 2-(6-Nitro-1H-benzimidazol-2-yl)-1,4-benzenediol]",anti-glycation activity (in words),[1],significant anti-glycation activity
same,cytotoxicity,[2],21.1%
"O=[N+]([O-])c1ccc2nc(-c3ccsc3)[nH]c2c1 [Compound 3, 6-Nitro-2-(3-thienyl)-1H-benzimidazole]",cytotoxicity,[2],19.7%
"O=[N+]([O-])c1ccc2nc(-c3ccc(O)c(O)c3O)[nH]c2c1 [Compound 4, 4-(6-Nitro-1H-benzimidazol-2-yl)-1,2,3-benzenetriol]",anti-glycation activity (in words),[1],significant anti-glycation activity
same,inhibition at 24 µM,[3]; [6],63.6%
same,inhibition at 33 µM,[3]; [6],89.2%
same,inhibition at 49 µM,[3]; [6],93.4%
same,effect on ROS production (in words),[3]; compound 24 μM,moderate activity against ROS production
same,"Fluorescence (Average), AGE-mediated intracellular ROS production",[3]; compound 24 μM,138.8
same,effect on ROS production (in words),[3]; compound 33 μM,significantly impaired the ROS production
same,"Fluorescence (Average), AGE-mediated intracellular ROS production",[3]; compound 33 μM,97.5
same,effect on ROS production (in words),[3]; compound 49 μM,inhibited the AGE-induced ROS production in rat hepatocytes in a remarkably significant manner
same,"Fluorescence (Average), AGE-mediated intracellular ROS production",[3]; compound 49 μM,90.7
same,effect on hepatocytes growth and proliferation (in words),[4]; compound 24 μM,significant effect on the growth and proliferation
same,Percentage Inhibition (remaining growth inhibition of hepatocytes versus normal cells),"[4]; compound 24 μM, 24 hours",35.8%
same,"Absorbance (Average), AGE-mediated diminished growth of the hepatocytes","[4]; compound 24 μM, 24 hours",0.91
same,effect on hepatocytes growth and proliferation (in words),"[4]; compound 33 μM, 24 hours",significantly restored the growth and proliferation
same,Percentage Inhibition (remaining growth inhibition of hepatocytes versus normal cells),"[4]; compound 33 μM, 24 hours",34.3%
same,"Absorbance (Average), AGE-mediated diminished growth of the hepatocytes","[4]; compound 33 μM, 24 hours",0.93
same,effect on hepatocytes growth and proliferation (in words),[4]; compound 49 μM,as effective as 33 μM concentration in reducing the toxicity of AGEs
same,Percentage Inhibition (remaining growth inhibition of hepatocytes versus normal cells),"[4]; compound 49 μM, 24 hours",22.2%
same,"Absorbance (Average), AGE-mediated diminished growth of the hepatocytes","[4]; compound 49 μM, 24 hours",1.05
same,cytotoxicity,[2],9.8%
"O=[N+]([O-])c1ccc2nc(-c3c(O)cc(O)cc3O)[nH]c2c1 [Compound 5, 2-(6-Nitro-1H-benzimidazol-2-yl)-1,3,5-benzenetriol]",cytotoxicity,[2],4%
"O=[N+]([O-])c1ccc2nc(-c3ccc(O)c(O)c3)[nH]c2c1 [Compound 6, 4-(6-Nitro-1H-benzimidazol-2-yl)-1,2-benzenediol]",anti-glycation activity (in words),[1],significant anti-glycation activity
same,cytotoxicity,[2],3.4%
"O=[N+]([O-])c1ccc2nc(-c3ccc(O)cc3O)[nH]c2c1 [Compound 7, 4-(6-Nitro-1H-benzimidazol-2-yl)-1,3-benzenediol]",anti-glycation activity (in words),[1],significant anti-glycation activity
same,cytotoxicity,[5],37.4%
"Cc1ccc(-c2nc3cc([N+](=O)[O-])ccc3[nH]2)cc1 [Compound 8, 2-(4-Methylphenyl)-6-nitro-1H-benzimidazole]",cytotoxicity,[2],59.2%
"O=[N+]([O-])c1ccc(-c2nc3cc([N+](=O)[O-])ccc3[nH]2)cc1 [Compound 9, 6-Nitro-2-(4-nitrophenyl)-1H-benzimidazole]",cytotoxicity,[2],45.2%
"O=[N+]([O-])c1ccc2nc(-c3ccc(O)cc3)[nH]c2c1 [Compound 10, 4-(6-Nitro-1H-benzimidazol-2-yl) phenol]",cytotoxicity,[2],3.6%
